What all share (assay): DTP human tumour cell line panel, 48 h
Assay [1] deals with SF-295 CNS.
In assay [2] the test system is CAKI-1 renal.
In assay [3] the test system is EKVX NSCLC.
The test system of assay [4] is A498 renal.
Assay [5] concerns DMS 273 small cell lung.
Assay [6] concerns DLD-1 colon.
Assay [7] deals with HCT-116 colon.
Assay [8] deals with UACC-257 melanoma.
For assay [9], the system named is KM20L2 colon.
Assay [10] relates to SNB-75 CNS.
In assay [11] the test system is SR leukemia.

Molecules are shown by their SMILES. “And” between values parts separate entries of the source, which are not always exact repeats. Identical values can stand only once.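 Tested at 5 concentrations; 48 h exposure; 96-well plates; endpoints linearly interpolated, else capped at highest concentration. GI50 = concentration required for 50% inhibition of growth. At the TGI there is no net growth.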 Where only a bound is given, the exact number is not on record here.

A word on the TGI: it is the concentration giving total growth inhibition. Low readings indicate more potent growth arrest, high ones less potent growth arrest. For `CC(C)=CCC/C(C)=C/CCC1(C)C=Cc2c(c3ccccc3oc2=O)O1` (stereo not drawn), the TGI in assay [1] was found to be 33.9 µM; in assay [2], 33 µM; in [3] it was 33.9 µM; in assay [4], 27.1 µM; in assay [5] it was 32 µM; in assay [6] it was 28.5 µM. The TGI came to 28 µM in assay [7], 31.2 µM in assay [8], 34 µM in assay [9] and 19.8 µM in assay [10].

Take `OC1COC(OCc2ccccc2)C(O)C1O` (stereo not drawn): the TGI in [1], in assay [2], in assay [3], in [4], in assay [7] and in assay [11] was over 100 µM throughout. In assay [8], this compound came in with a TGI of over 100 µM.

Turning to `C/C(=N\NC(=S)Nc1ccc([N+](=O)[O-])cc1)c1nc2ncccc2[nH]1`, the TGI in assay [1] is 10.2 µM; in assay [2], over 100 µM; in [3] it was 3.2 µM; in assay [4] it was 8.76 µM; in assay [7], 6.12 µM; in assay [11] it was over 100 µM. For the same compound, the TGI worked out at 2.96 µM in [8] and 4.1 µM in [10].

In general, GI50 refers to the concentration at which growth is held to half of that of the control. Turning to `O=C(O)CCCc1ccccc1`, the GI50 in assay [1] was 370 µM and > 1000 µM; in [2], over 1000 µM; in assay [3], 294 µM and > 1000 µM; in assay [4] it was over 1000 µM; in assay [7], over 1000 µM; in [11] it was 215 µM and 28.5 µM. Also, the GI50 in assay [8] was 340 µM and > 1000 µM. The TGI was 738 µM and > 1000 µM in assay [1]; over 1000 µM in assay [2]; over 1000 µM in assay [3]; 302 µM and > 1000 µM in assay [4]; over 1000 µM in assay [7]; over 1000 µM in assay [11]. In addition, the TGI in [8] was over 1000 µM; in assay [10], 327 µM and > 1000 µM.

For `Cc1cn(C2CC(O)C(Cn3nncc3Cn3ncc(=O)[nH]c3=O)O2)c(=O)[nH]c1=O` (stereo not drawn), the TGI in assay [1], in [2], in assay [3], in assay [4], in assay [7] and in assay [8] was over 100 µM each time.

With `C=CCNC(=O)CN(CC(=O)OC)C1CCCCC1N(CC(=O)OC)CC(=O)OC` (stereo not drawn), the TGI in assay [1], in [2], in assay [3], in assay [4], in [7] and in assay [8] was over 100 µM in each case.

Turning to `O=C(O)C12CC3CC(C1)C2C=C3P(=O)(O)O` (stereo not drawn), the TGI in assay [1], in assay [2], in assay [3], in assay [5], in [6] and in [7] was over 100 µM in each case. The TGI in assay [8], in assay [9] and in assay [10] was over 100 µM each time.

Consider `COCCOCOC(C)(C)[C@H](CCO)O[Si](c1ccccc1)(c1ccccc1)C(C)(C)C`, for which the TGI in assay [1] was determined as 18.6 µM; in assay [3] it was 29.5 µM; in assay [4] it was 31.6 µM; in assay [6] it was 22.4 µM; in assay [7], 14.1 µM; in assay [11], 16.3 µM. The results for the TGI in assay [8], in assay [9] and in assay [10] were 23.5 µM, 24.4 µM and 21.6 µM, respectively.

As to `O=C1c2ccccc2C(=O)c2c1cc1c(c2[N+](=O)[O-])OCO1`, the GI50 in assay [1] was 2.27 µM; in [2], 0.556 µM; in [3], 2.92 µM; in [4], 0.0824 µM; in assay [7] it was 0.641 µM; in assay [11], 0.242 µM. Further, the GI50 in assay [8] is 11.8 µM; in assay [10] it was 1.44 µM. The TGI worked out at 8.82 µM in assay [1]; 4.51 µM in [2]; 9.8 µM in assay [3]; 2.38 µM in assay [4]; 4.44 µM in assay [7]; 1.55 µM in [11]. In addition, the TGI in assay [8] was 41.5 µM; in assay [10], 3.46 µM.

Take `CC(C)=CC(=O)OC1C2C(C)=CC(O)C(O)C2(C)C2C3(O)OCC24C(CC(=O)OC14)C(C)C3O` (stereo not drawn): the TGI came to 0.81 µM in [1]; 13.9 µM in [2]; 0.642 µM in [3]; 4.07 µM in [4]; 0.101 µM in assay [5]; 0.485 µM in [6]. Besides, the TGI in assay [7] is 0.381 µM; in assay [8] it was 2.43 µM; in assay [9], 4.57 µM; in assay [10], 0.693 µM.

Regarding `COc1cc(/C=C/C2=C(C#N)C(=O)OC2(C)C)ccc1O`, the TGI in assay [1], in assay [2], in assay [3], in assay [4], in assay [5] and in assay [6] was over 100 µM in each case. Further, the TGI in assay [7] is over 100 µM; in [11] it was 67.3 µM; in assay [8] it was over 100 µM; in [9] it was over 100 µM; in assay [10] it was over 100 µM.

Regarding `CCCCCCCCCCCCC(O)C(=O)O` (stereo not drawn), the TGI in assay [1], in assay [2], in [4], in assay [7], in [8] and in assay [10] was over 100 µM in each case.

With `COc1cc(C(=O)C2CC3(CCC2(O)c2cc(OC)c(OC)c(OC)c2)CC(=O)Nc2ccccc2C3=O)cc(OC)c1OC` (stereo not drawn), the TGI in [1], in [2], in [3], in assay [4], in assay [7] and in assay [11] was over 100 µM in each case. Also, the TGI in assay [8] and in assay [10] was over 100 µM each time.

Take `c1ccc2cc3c(cc2c1)OP1(Oc2cccc4cccnc24)(O3)Oc2cc3ccccc3cc2O1`: the TGI is over 58.9 µM in assay [1]; 20.6 µM in assay [2]; over 57.3 µM in assay [3]; 64.3 µM in [4]; 12.4 µM in [5]; over 100 µM in assay [6]. The TGI in assay [7] was over 100 µM; in assay [8], 8.94 µM; in [9], 20.3 µM; in assay [10] it was 92.1 µM.

For the compound `Nc1n[nH]c(CCCCCCCc2nc(N)n[nH]2)n1`, the TGI in assay [3], in assay [4], in assay [6], in assay [7], in [11] and in [8] was over 100 µM throughout. For the same compound, in assay [10], the TGI was over 100 µM.

For `Cc1c(C2=NN=C(N=Nc3c(O)cccc3O)/C2=C/c2ccccc2)c(=O)n(-c2ccccc2)n1C`, the TGI in [1], in assay [2], in assay [3], in assay [4], in assay [5] and in assay [6] was over 100 µM each time. The TGI in assay [7], in [8], in [9] and in [10] was over 100 µM throughout.

The values above are taken from PubChem BioAssay (NCI).
